From patent US12186297B2, “Compositions and methods for increasing lean-to-fat mass ratio” (AXCESS GLOBAL SCIENCES, LLC, priority 2020, dated 2025) come the findings set out here.

This experiment can be described thus: Expected change in fat mass, muscle mass and lean-to-fat mass ratio in subjects following a training regimen (FIGS. 3, 4A-4C). It counts as in vivo. The conditions noted are these: FIG. 4A, set period of time (e.g., 1-3 months).

Source text: FIG. 4A illustrates expected change in fat mass over a set period of time (e.g., 1-3 months) for subjects following a training regimen and given different treatments of HMB only (HMB), BHB only (BHB), and a combination of the same amounts of HMB and BHB (HMB+BHB).
FIG. 4B illustrates expected change in muscle mass over a set period of time (e.g., 1-3 months) for subjects following a training regimen and given different treatments of HMB only (HMB), BHB only (BHB), and a combination of the same amounts of HMB and BHB (HMB+BHB).

For the compound `CC(C)(O)CC(=O)O` [HMB, beta-hydroxy-beta-methylbutyrate], the “expected change in fat mass” value was “not expected to provide fat loss to any significant degree by itself”.
